# What was measured:
# A549 cells = test: Single-dose CCK-8 cell viability screening (adherent cells); type: cell-based, human; details: Homo sapiens, A549, 48 h, A549 cells, 50 uM, 48 h, CCK-8; read-out: % Viability (50 uM, 48 h) A549
# [1] = as above; type: cell-based, human; details: Homo sapiens, A549, 48 h, average of A549 and Jurkat % viability, 50 uM, 48 h
# Jurkat cells = test: Single-dose CCK-8 cell viability screening (suspension cells); type: cell-based, human; details: Homo sapiens, Jurkat, 48 h, Jurkat cells, 50 uM, CCK-8, read-out: % Viability (50 uM, 48 h) Jurkat
# [2] = system: BV-2 murine microglial cell line; test: RSL3-induced ferroptosis model, cell viability (CCK-8); details: BV-2, RSL3 500 nM 2 h, then 50 μM compound 22 h
# Experimental: In this example, the anti-ferroptotic properties of the BB analogues described in preceding examples were evaluated by a RSL3-induced ferroptosis model. […] To evaluate the anti-ferroptosis activity of BB analogues, we developed a phenotypic screening based on RSL3-induced ferroptosis model on HT22 mouse hippocampal cell line, HMC3 microglial cell line and BV-2 murine microglial cell line which were co-treated or pre-treated with RSL3 and BB analogues for 2-24 h, and the cell viability was subsequently measured. […]
# For phenotypic screening of bilobalide (BB) analogues, 5,000 cells per well (100 uL volume) of HT22, HMC3 or BV-2 cells were placed in 96-well plate and allowed to adhere for 22 h. […] Cell viability was measured using cell counting kit-8 (CCK-8) (MCE). […] Cell viability was measured after 22 h treatment by CCK-8. […] Cell viability was measured by CCK-8 using CLARIOstar monochromator multimode plate reader under 450 nm wavelength.
# In this example, the cells were pre-treated with RSL3 (200 nM for HT22 and HMC3, 500 nM for BV-2) for two hours, followed by bilobalide analogues treatment (50 PM) for 22 hours. Cell viability was measured using cell counting kit-8 (CCK-8); n=5 technical replicates. […]
# GAPDH = GAPDH protein level by Western-blot after RSL3; type: cell-based; details: HMC3, 500 nM RSL3 2 h, then various concentrations of compound 8 h
# Experimental: (§1) In FIN56 assay, HMC3 (300,000 cells per well on 6-well plate) was pre-treated with FIN56 (2.5, 1.25, 0.625 μM) for 2 h, followed by 8 h treatment of DMSO only (0.1%) or XBB-037 (50 μM). In RSL3 assay, HMC3 (300,000 cells per well on 6-well plate) was pre-treated with RSL3 (750, 500, 250 nM) for 2 h, followed by 4 h or 8 h treatment of DMSO only (0.1%) or XBB-037 (50 μM). […] Antibodies for GPX4 (52455, CST) was used at 1:500 dilution, β-Actin (AC026, ABclonal) was used at 1:400,000 dilution, GAPDH (AC035, ABclonal) was used at 1:3000 dilution. […] Band intensity was normalized by image lab software.
# This observation reflected the governing of GPX4 by bilobalide analogue XBB-037, which played an important role in the mechanism against RSL3-induced ferroptosis.
# GPX4 = GPX4 protein level by Western-blot; type: cell-based
# From the text: As mentioned above, RSL3 treatment results in an oxidized environment in cells, which promotes the CMA to scavenge damaged proteins including GPX4 or glyceraldehyde-3-phosphate dehydrogenase (GAPDH), a well-known CMA substrate. To gain insights into the mechanism of action of bilobalide analogue XBB-037 against the RSL3-induced ferroptosis, HMC3 cells were pre-treated with RSL3, followed by treatment with or without bilobalide analogue XBB-037.
# as §1
# Now referring to FIGS. 7E-7F, GPX4 levels in HMC3 cells pre-treated with RSL3 are shown. Protein levels of GPX4 and […] at 0, 250, 500 or 750 nM RSL3 were measured by Western-blot. HMC3 cells were pretreated with RSL3 for 2 hours and then treated with or without 50 μM bilobalide analogue XBB-037 for 4 hours.
# In addition to […], FIN56 was further used to investigate the GPX4 regulation of bilobalide analogue XBB-037. As mentioned above, FIN56 is a Class III ferroptosis inducer, which causes the depletion of cellular GPX4 levels without affecting GPX4 activity. In this experiment, HMC3 cells were pretreated with FIN56 for 2 hours and then treated with or without 50 μM XBB-037 for 8 hours. Protein levels were measured by Western-blotting using indicated antibodies. Data were plotted as mean±s.d., n=3 technical replicates. **p<0.01. Statistical analyses were performed by two-way ANOVA with multiple comparisons using Two-stage linear step-up procedure of Benjamini, Krieger and Yekutieli multiple comparisons test. […]
# [3] = system: HT22 mouse hippocampal cell line; test: RSL3-induced ferroptosis model, cell viability (CCK-8)
# Experimental: In this example, the anti-ferroptotic properties of the BB analogues described in preceding examples were evaluated by a RSL3-induced ferroptosis model. […] To evaluate the anti-ferroptosis activity of BB analogues, we developed a phenotypic screening based on RSL3-induced ferroptosis model on HT22 mouse hippocampal cell line, HMC3 microglial cell line and BV-2 murine microglial cell line which were co-treated or pre-treated with RSL3 and BB analogues for 2-24 h, and the cell viability was subsequently measured.
# HMC3 cell line was maintained in Minimum Essential Medium (MEM, Gibco) supplemented with 1× non-essential amino acid (Gibco), 1 mM sodium pyruvate (Gibco), 10% fetal bovine serum (FBS) (Gibco) and 1% penicillin/streptomycin (Gibco). BV-2 cell line was maintained in Roswell Park Memorial Institute (RPMI) 1640 medium (Gibco) supplemented with 10% FBS and 1% penicillin/streptomycin, and HT22 cell line was maintained in Dulbecco's Modified Eagle's Medium (DMEM) (Gibco) supplemented with 10% FBS and 1% penicillin/streptomycin. All cells were incubated at 37° C. in a humidified atmosphere under 5% CO2.
# For phenotypic screening of bilobalide (BB) analogues, 5,000 cells per well (100 uL volume) of HT22, HMC3 or BV-2 cells were placed in 96-well plate and allowed to adhere for 22 h. After which, cells were pre-treated with 200 nM (on HT22, HMC3) or 500 nM (on BV-2) of RSL3 (Bidepharm) for 2 h respectively. Medium was then replaced by 50 μM BB analogues and followed by 22 h incubation subsequently. Cell viability was measured using cell counting kit-8 (CCK-8) (MCE). For dose-response of BB analogues, RSL3, HT22 and HMC3 cells (seeded on 96-well plates at 5,000 cells per well) were treated with multiple doses of RSL3 for 2 h. […] Cell viability was measured after 22 h treatment by CCK-8. […] Cell viability was measured by CCK-8 using CLARIOstar monochromator multimode plate reader under 450 nm wavelength.
# In this example, the cells were pre-treated with RSL3 (200 nM for HT22 and HMC3, 500 nM for BV-2) for two hours, followed by bilobalide analogues treatment (50 PM) for 22 hours. Cell viability was measured using cell counting kit-8 (CCK-8); n=5 technical replicates. […] Such effect was further investigated by treating the cell lines with various doses of RSL3.
smiles,measurement,setting,value
"CC(C)(C)[C@]1(O)C[C@@H]2OC(=O)C[C@@]23C(=O)O[C@@H]2N(c4ccc(N)cc4)C(=O)[C@H](OC(=O)c4ccccc4)[C@]213 [XBB-037, 4-(3aS,5aS,8R,9R,10aS)-8-(benzoyloxy)-9-(tert-butyl)-9-hydroxy-2,4,7-trioxohexahydro-4H,9H-furo[3″,2″:2′,3′]cyclopenta[1′,2′:3,4]furo[2,3-b]pyrrol-6(5aH)-yl)benzenaminium chloride]",viability at 50 µM,A549 cells,95%
same,viability at 50 µM,[1],90.5%
same,viability at 50 µM,Jurkat cells,86%
same,"inhibition of RSL3-induced ferroptosis (phenotypic screening, cell viability)",[2],effectively inhibit ferroptosis
same,GAPDH level after RSL3,GAPDH,restored the level of GAPDH
same,GPX4 level after FIN56,"GPX4; HMC3, FIN56 0.625, 1.25, 2.5 μM 2 h, then 50 μM compound 8 h",significantly restored GPX4 level
same,GPX4 level after RSL3,"GPX4; HMC3, RSL3 0, 250, 500 or 750 nM 2 h, then 50 μM compound 4 h",RSL3-induced GPX4 degradation was reduced
same,"inhibition of RSL3-induced ferroptosis (phenotypic screening, cell viability)","[3]; HT22, RSL3 200 nM 2 h, then 50 μM compound 22 h",effectively inhibit ferroptosis
same,shift of RSL3 dose-dependent viability curve,"[3]; HT22, multiple doses of RSL3, 50 μM compound",diminished RSL3 lethality

# — US20250144069A1, “BILOBALIDE DERIVATIVE COMPOUNDS FOR TREATING NEUROLOGICAL DISEASES AND CANCERS” (The Chinese University of Hong Kong, priority 2023, published 2025)
